# From patent US10251902B2, “Pharmaceutical composition for treating or preventing neuropsychiatric disease, containing flavone-6-C-glucose derivatives as active ingredients” (priority 2013, dated 2019)
# Legend:
# [1] = tested on: model of memory impairment induced by scopolamine; experiment: Y-maze test in scopolamine-treated mice; type: in vivo, ICR mice; conditions: scopolamine 1 mg/Kg i.p.; for Alternation Behavior (%): Table 6, 8 minutes in Y-maze; for Total Entry: Table 7, total number of entry to each branch, 8 minutes
# Protocol: An experiment was conducted to confirm effects of swertisin or isoorientin, and extracts of Swertia pseudochinensis or Swertia japonica containing the same prepared in Examples 1 to 3 in treating dementia by using a model of memory impairment induced by scopolamine. Detailed method follows.
# Six-week old ICR mice in about 26 g to 28 g (Orientbio Inc, Republic of Korea) were received water and feed without constraint and adapted for 5 days under an environment having about 23±1° C. of temperature, about 60±10% of humidity and 12-hour light/dark cycle (animal laboratory at College of Pharmacy, Kyung-Hee University), and then used for the experiment.
# A Y-maze was prepared for the experiment. The Y-maze has 3 branches and each branch has 42 cm of length, 3 cm of width and 12 cm of height. Angle between any two arms is 120 degrees and the arms were made of black polyvinyl resin.
# The mice prepared in the above 1) were separated into 5 groups (10 mice per each group) comprised of drug administration groups 1 and 2, and controls 1 to 3.
# The swertisin prepared in Example 3 (8 mg) was dissolved in 4 mL of 10% Tween 80 (Polyoxyethylene sorbitan monooleate: Sigma, U.S.A.), and administered to the drug administration groups 1 and 2 in an amounts of 5 mg/Kg and 10 mg/Kg respectively. Meanwhile, 5 mg/Kg of donepezil was administered to the control 1, and 0.15 mL of 10% Tween 80 was administered to the controls 2 and 3 respectively.
# About 30 minutes later, 1 mg/Kg of scopolamine, which was dissolved in distilled water, was intraperitoneally administered to the drug administration groups 1 and 2, and controls 1 and 2 (Ebert, U. et al., Eur. J. Clin. Invest., 28, pp. 944-949, 1998), and 0.9% of saline solution was intraperitoneally administered to the control 3.
# After 30 minutes, mice of the drug administration groups 1 and 2, and the controls 1-3 were carefully located on each branches of the Y-maze, which was divided as A, B and C respectively, and let the mice move freely for 8 minutes, and then recorded branches where mice have entered. The entrance was recorded when the entire body (i.e. including the tail) has completely entered. It was also recorded when the mice entered again into the branch that the mice have entered before.
# One point was scored when the mouse sequentially entered into 3 different branches (actual alternation). Alternation behavior is defined as sequentially entering into every 3 branch, and it was converted into % via Equation 1 below (Sarter, M. et al., Psychopharmacology., 94, pp. 491-495, […]).
# [2] = tested on: brain cells in the hippocampal region, mouse model of stroke; experiment: Neurological scoring of hippocampal brain cell damage (Nissl staining) in mouse model of stroke; type: in vivo, ICR mice; conditions: for Neurological Score: Table 13, score 0-3 points of hippocampal damage
# Protocol: Seven-week old ICR mice in about 30 g to 35 g (Orientbio Inc, Republic of Korea) were received water and feed without constraint and adapted for 5 days under an environment having about 23±1° C. of temperature, about 60±10% of humidity and 12-hour light/dark cycle (animal laboratory at College of Pharmacy, Kyung-Hee University), and then used for the experiment.
# The laboratory animal in 1) was located in an operating room, adapted for 60 minutes, and anesthetized in a space providing anaesthetic gasses (nitrous oxide: 70%; oxygen: 30%; isoflurane: 2.0%). Pain reflex was examined to confirm the anesthesia. The laboratory animal was lain down straight on an operating table, and fixed its upper limb and head. Skin from the spot, where the upper limb and the center line meet, was incised as 1.5 cm to expose the both common carotid arteries by using tweezers while not damaging the tissues. Tissues and nerves attached to the exposed carotid arteries were separated and fixed with an aneurysm clip. The clip was removed after 15 minutes and reperfused, and the incised area was sutured with sutures. After the suture, the laboratory animal was immediately moved to a recovery room (32-33° C., O2 enrichment condition) and kept until it recovers from anesthesia. Observation on its weight and status was conducted once a day for 4 days after the operation.
# Meanwhile, upon termination of the Y-maze test, a 4% paraformaldehyde fixation was conducted on the drug administration groups 1-3 and the control 2, and brain was excised. Paraformaldehyde-fixed brain sample was washed and section having 30 μm of thickness was prepared therefrom. The Nissl staining, which can stain a native region of brain cells in normal status, was performed. Brain cell damage in the hippocampal region of the drug administration groups 1-3, wherein the Swertia japonica extract prepared in Example 1 was administered, and the controls 1 and 2 was assessed through a neurological scoring. Pertaining to the evaluation standard, 0 point was scored when there was no damage on the hippocampal region; 1 point for 0-30% of damage; 2 points for 30-60% of damage; and 3 points for 60-100% of damage. The points were scored by 3 people who have no knowledge of the drug administration groups and the controls. Average point was used to calculate the degree of damage.
# Upon termination of the Y-maze test, the drug administration groups 1-3 and the control 2 were sacrificed to prepare the brain section, and the Nissl staining was conducted to evaluate brain cell damage in the hippocampal region of the drug administration groups 1-3, wherein swertisin prepared in Example 3 was administered, and the controls 1 and 2 through the neurological scoring.
smiles,measurement,setting,value
COc1cc2oc(-c3ccc(O)cc3)cc(=O)c2c(O)c1[C@@H]1O[C@H](CO)[C@@H](O)[C@H](O)[C@H]1O [swertisin],Alternation Behavior (%),[1]; swertisin 5 mg/kg,56.22 ± 12.29%
same,Alternation Behavior (%),[1]; swertisin 10 mg/kg,59.36 ± 5.653%
same,Total Entry,[1]; swertisin 5 mg/kg,27.10 ± 7.795
same,Total Entry,[1]; swertisin 10 mg/kg,28.88 ± 4.155
same,Neurological Score,[2]; swertisin 50 mg/kg for 7 days,1.8130 ± 0.3750
same,Neurological Score,[2]; swertisin 100 mg/kg for 7 days,1.2500 ± 0.2500
same,Neurological Score,[2]; swertisin 200 mg/kg for 7 days,1.1670 ± 0.5204
same,"neurological score, in words",[2]; swertisin 200 mg/kg (drug administration group 3) versus stroke-induced group,significant result to the stroke-induced group
